# From patent US20160039852A1, “THERAPEUTIC USES OF BISPHOSPHONATES” (THE UNIVERSITY OF SHEFFIELD, priority 2013, published 2016)
# Read-outs that look alike come from different tables or passages of the source.
# Legend:
# [1] = system: human mesenchymal stem cells (hMSC); test: hMSC growth kinetics, cumulative population doublings with time in culture; type: cell-based; conditions: for population doublings after which cultures stopped proliferating: hMSC, from the start of the treatment, PBS cultures senesced after 21-25 PDs, n=3; for hMSC life span / time of proliferation in culture: versus PBS control
# [2] = system: human mesenchymal stem cells (hMSC); test: Immunostaining of γH2AX DNA damage foci (double stranded breaks) in hMSC; type: cell-based; conditions: for number of γH2AX DNA damage foci after irradiation: 1Gy irradiation, compound at 1 μM, foci at 4 h (Zol also 12, 24 h) versus PBS; for effect of Zol on DNA damage after addition of prenylation intermediate: 1Gy, Zol plus FOH or GGOH (33 μM)
# Method: DNA damage was induced by exposing hMSC to ^137Cs Gamma source. Cells were washed with PBS and fixed with 4% Para-formaldehyde for […]. Cells were then washed with PBS permeabilized with 0.5% Triton-X (Sigma, UK) for […] and blocked with 5% normal goat serum (DAKO, Glostrup, Denmark) in PBS for 1 hr. This was followed by incubation with primary antibody, anti-phospho histone H2AX (Ser139) (Millipore, Massachusetts, USA) used at 1:800 in 5% normal goat serum, overnight at 4° C. Cells were then washed in PBS and incubated in secondary Anti mouse IgG Fluorescein Isothiocyanate (FITC) conjugated (Insight Biotechnology, Santa Cruz, USA) at 1:200 in PBS for 1 hour at room temperature. The cover-slips were mounted on slides with mounting media (VectaShield) containing 4',6-diamidino-2-phenylindole (DAPI) to stain the nuclei. […] Cells were viewed using in an Inverted Zeiss LSM 510 NLO microscope equipped with Argon (Ar) laser (488 nm) 30 mW to image the fluorescent marker FITC and UV lamp to image DAPI stained nuclei. Five to seven fields consisting of 25 cells in total were randomly selected from a tile scan (20×) and individual cells viewed at 63× were then scored for γH2AX DNA damage foci using ImageJ 1.45 software (http://rsbweb.nih.gov/ij/). One of the factors affecting cellular lifespan is accumulation of DNA damage.
# FPP synthase = biological target: T1, FPP synthase (Homo sapiens, UniProt P14324); test: Prenyl synthase assay (FPP synthase activity); type: biochemical
# T1 sequence (P14324 1-419): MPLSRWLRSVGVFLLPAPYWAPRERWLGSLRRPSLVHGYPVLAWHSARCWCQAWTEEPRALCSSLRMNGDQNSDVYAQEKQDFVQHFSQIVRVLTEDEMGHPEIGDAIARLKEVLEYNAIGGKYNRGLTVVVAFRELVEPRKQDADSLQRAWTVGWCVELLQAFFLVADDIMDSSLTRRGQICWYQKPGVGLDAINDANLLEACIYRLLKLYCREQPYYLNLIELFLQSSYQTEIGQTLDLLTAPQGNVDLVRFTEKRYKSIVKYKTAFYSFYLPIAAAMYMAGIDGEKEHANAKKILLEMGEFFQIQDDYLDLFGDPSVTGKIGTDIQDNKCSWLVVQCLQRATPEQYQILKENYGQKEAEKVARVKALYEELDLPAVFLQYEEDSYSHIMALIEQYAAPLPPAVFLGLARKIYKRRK
# Method: FPP synthase activity was measured by the method of Reed and Rilling (Reed, B. C. & Rilling, H. C. (1976) Biochemistry 15, 3739-3745) with modifications. Assays were set up such that the final volume was 100 ul. The assay conditions were 50 mM Tris pH7.7, 2 mM MgCl2, 0.5 mM TCEP, 20 μg/ml BSA. For FPP synthase assays the final enzyme concentration was 10 nM. All substrates were at 10 μM final concentration each substrate, all reactions were with IPP (14C-IPP, 400Kq/μMol American Radiochem. Corp). For FPP synthase GPP was the second substrate. Bisphosphonate was added as 1/10th volume of a 10× stock solution and allowed to preincubate for 10 minutes with the enzyme in a volume of 80 ul and the reaction started by the addition of 20 ul of the combined substrate. The reaction was allowed to proceed for 4 minutes at 37° C. before being terminated by the addition of 0.2 ml of conc. HCI/Methanol (1:4) and incubated for a further 10 mins at 37° C. The reaction mixtures were then extracted with 0.4 ml of immiscible scintillation fluid (Microscint E, Perkin Elmer) to separate reaction products from unused substrate and were counted directly with a microbeta scintillation counter (Perkin Elmer).
# [3] = system: zebrafish embryo caudal fin; test: Zebrafish tail amputation and regeneration following irradiation; type: in vivo, Zebrafish (Danio Rerio H); conditions: irradiated embryos, Zol plus FOH or GGOH
# Method: Embryos from wild-type Zebrafish (Danio Rerio H) AB strain were collected at 16 cell stage (˜1.5 hours post fertilisation (hpf)) and grown in E3 Medium at 28° C. Embryos were treated with Zoledronate (1 μM) and/or FOH, GGOH at 24 hpf. DNA damage was induced by exposure to ^137Cs Gamma source at 48 hpf and after irradiation the embryo tails were amputated and the embryos were then incubated at 28° C. for a further 12 hrs in the presence of the chemicals. At the end of this period the chemicals were washed off and the embryos were incubated in fresh medium with no chemicals. The embryos were grown up to 120 hpf, following which they were fixed in 4% PFA overnight and then mounted in 100% glycerol. The tail lengths of embryos were measured taking the anal region as starting reference point and the end of the fin fold as the ending point of measurement.
smiles,measurement,setting,value
NCCCC(O)(P(=O)(O)O)P(=O)(O)O [Alendronate],population doublings after which cultures stopped proliferating,[1],27-30 PDs
same,hMSC life span / time of proliferation in culture,[1],extend hMSC lifespan
same,number of γH2AX DNA damage foci after irradiation,[2],enhance repair of DNA damage
"O=P(O)(O)C1CC2CCCNC2C1P(=O)(O)O (stereo not shown) [Compound A, 2-Azabicyclo-[4.3.0]nonane-8,9-diphosphonic acid]",number of γH2AX DNA damage foci after irradiation,[2],significant decrease
same,number of γH2AX DNA damage foci after irradiation,[2]; listed as compound A,significant reduction in DNA damage
same,affinity for / inhibitory potency on FPP synthase,FPP synthase,high affinity
same,affinity for / inhibitory potency on FPP synthase,FPP synthase; listed as compound A,high
"O=P(O)(O)C1CC2CCCNC2C1P(=O)(O)O (stereo not shown) [Compound B, 2-Azabicyclo-[4.3.0]nonane-8,9-diphosphonic acid]",number of γH2AX DNA damage foci after irradiation,[2],not
same,affinity for / inhibitory potency on FPP synthase,FPP synthase,low affinity
same,affinity for / inhibitory potency on FPP synthase,FPP synthase; listed as compound B,low
"O=P(O)(O)C(F)(Cc1cnc2ccccn12)P(=O)(O)O [Compound C, 1-fluoro-2-(imidazo-[1,2-a]pyridine-3-yl)-ethyl-bisphosphonic acid]","DNA repair (γH2AX DNA damage foci), concentration dependence","[2]; Compound C at increasing concentrations, 4 hours after irradiation",enhances DNA repair in a dose dependent manner
same,affinity for / inhibitory potency on FPP synthase,FPP synthase,high inhibitory potency
"CC(C)=CCC/C(C)=C/CC/C(C)=C/CO [FOH, Trans, trans farnesol]",effect of Zol on DNA damage after addition of prenylation intermediate,[2],reversed
same,Zol-mediated fin repair process after addition of FOH or GGOH,[3],abrogated
"CC(C)=CCC/C(C)=C/CC/C(C)=C/CC/C(C)=C/CO [GGOH, geranylgeraniol]",effect of Zol on DNA damage after addition of prenylation intermediate,[2],reversed
same,Zol-mediated fin repair process after addition of FOH or GGOH,[3],abrogated
O=P(O)(O)C(O)(Cc1cccnc1)P(=O)(O)O [Risedronate],population doublings after which cultures stopped proliferating,[1],29-34 PDs
same,hMSC life span / time of proliferation in culture,[1],extend hMSC lifespan
same,number of γH2AX DNA damage foci after irradiation,[2],enhance repair of DNA damage
